Laboratory results: patent publication US9409966B2, “Glucagon-like peptide-1 derivatives and their pharmaceutical use” (priority 2007, dated 2016)
*1 amine or outer side, *2 acyl side, *3 side chain or, on linkers, in order; H or OH if unused. Where a SMILES comes first, the peptide text is derived from it. Side-chain parts run from the residue outwards. [ ]: non-standard residue; d: D form. The star is where a group is joined. X2 = O=C(O)CCCCCCCCCCCCCCCCC(=O)N[C@@H](CCC(=O)NCCOCCOCC(=O)NCCOCCOCC(=O)N[C@@H](CCCCN*)C(=O)O)C(=O)O; C20 diacid = O=C(O)CCCCCCCCCCCCCCCCCCC(=O)*; C18 diacid = O=C(O)CCCCCCCCCCCCCCCCC(=O)*; C16 diacid = O=C(O)CCCCCCCCCCCCCCC(=O)*; γGlu = O=C(O)[C@H](CCC(=O)[*:2])N[*:1]; Desaminohistidyl = O=C(CCc1c[nH]cn1)*; βAsp = O=C(O)[C@H](CC(=O)[*:2])N[*:1]; NTA = O=C(O)CN(CC(=O)O)CC(=O)*; Dap = NC[C@H](N)C(=O)O; AEEA = NCCOCCOCC(=O)O; Aib = CC(C)(N)C(=O)O; Inp = O=C(O)C1CCNCC1

Molecular target: human serum albumin (HSA) (Homo sapiens, UniProt P02768)
Assay: Albumin binding affinity, competition scintillation proximity assay (SPA)
Description: Streptavidin-SPA beads (GE Healthcare RPNQ0009) were incubated with biotinylated HSA for 5 hours. The beads were washed with buffer to remove unbound HSA. […] After 20 hours of gentle rocking at room temperature the plates were centrifuged and counted on a TopCounter.

Chain of human serum albumin (HSA) (P02768 25-609): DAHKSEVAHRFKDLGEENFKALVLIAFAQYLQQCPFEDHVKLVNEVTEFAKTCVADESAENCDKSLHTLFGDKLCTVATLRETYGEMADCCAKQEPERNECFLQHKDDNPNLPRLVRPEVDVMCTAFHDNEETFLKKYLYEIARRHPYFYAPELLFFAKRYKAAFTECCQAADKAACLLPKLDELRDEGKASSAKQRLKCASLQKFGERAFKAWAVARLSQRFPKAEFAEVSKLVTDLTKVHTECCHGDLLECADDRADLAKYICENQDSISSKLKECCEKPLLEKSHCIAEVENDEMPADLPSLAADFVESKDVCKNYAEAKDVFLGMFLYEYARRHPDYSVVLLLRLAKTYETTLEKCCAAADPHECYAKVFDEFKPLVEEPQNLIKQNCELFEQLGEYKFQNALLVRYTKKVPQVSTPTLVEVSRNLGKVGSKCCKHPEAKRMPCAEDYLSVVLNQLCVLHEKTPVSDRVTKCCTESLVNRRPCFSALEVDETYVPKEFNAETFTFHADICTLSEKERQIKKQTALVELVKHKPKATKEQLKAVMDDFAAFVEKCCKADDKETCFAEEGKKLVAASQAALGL

SMILES | EC50
CC[C@H](C)[C@H](NC(=O)[C@H](Cc1ccccc1)NC(=O)[C@H](CCC(=O)O)NC(=O)[C@H](CCCNC(=N)N)NC(=O)[C@H](C)NC(=O)[C@H](C)NC(=O)[C@H](CCC(N)=O)NC(=O)[C@H](CCC(=O)O)NC(=O)[C@H](CCC(=O)O)NC(=O)[C@H](CC(C)C)NC(=O)[C@H](Cc1ccc(O)cc1)NC(=O)[C@H](CO)NC(=O)[C@H](CO)NC(=O)[C@@H](NC(=O)[C@H](CC(=O)O)NC(=O)[C@H](CO)NC(=O)[C@@H](NC(=O)[C@H](Cc1ccccc1)NC(=O)[C@@H](NC(=O)CNC(=O)[C@H](CCC(=O)O)NC(=O)C(C)(C)NC(=O)[C@@H](N)Cc1c[nH]cn1)[C@@H](C)O)[C@@H](C)O)C(C)C)C(=O)N[C@@H](CCCCNC(=O)COCCOCCNC(=O)COCCOCCNC(=O)C[C@H](NC(=O)C1CCN(C(=O)CCCCCCCCCCCCCCCCCCC(=O)O)CC1)C(=O)O)C(=O)N[C@@H](Cc1c[nH]c2ccccc12)C(=O)N[C@@H](CC(C)C)C(=O)N[C@H](C(=O)N[C@@H](CCCCN)C(=O)NCC(=O)N[C@@H](CCCNC(=N)N)C(=O)NCC(=O)O)C(C)C [Example 4, N-epsilon30{2-[2-(2-{2-[2-((S)-3-carboxy-3-{[1-(19-carboxynonadecanoyl)piperidine-4-carbonyl]amino}propionylamino)ethoxy]ethoxy}acetylamino)ethoxy]ethoxy}acetyl [Aib8,Glu22,Arg26,Lys30]GLP-1-(7-37)] | 200 to 400 nM
CC[C@H](C)[C@H](NC(=O)[C@H](Cc1ccccc1)NC(=O)[C@H](CCC(=O)O)NC(=O)[C@H](CCCNC(=N)N)NC(=O)[C@H](C)NC(=O)[C@H](C)NC(=O)[C@H](CCC(N)=O)NC(=O)[C@H](CCC(=O)O)NC(=O)[C@H](CCC(=O)O)NC(=O)[C@H](CC(C)C)NC(=O)[C@H](Cc1ccc(O)cc1)NC(=O)[C@H](CO)NC(=O)[C@H](CO)NC(=O)[C@@H](NC(=O)[C@H](CC(=O)O)NC(=O)[C@H](CO)NC(=O)[C@@H](NC(=O)[C@H](Cc1ccccc1)NC(=O)[C@@H](NC(=O)CNC(=O)[C@H](CCC(=O)O)NC(=O)C(C)(C)NC(=O)[C@@H](N)Cc1c[nH]cn1)[C@@H](C)O)[C@@H](C)O)C(C)C)C(=O)N[C@@H](C)C(=O)N[C@@H](Cc1c[nH]c2ccccc12)C(=O)N[C@@H](CC(C)C)C(=O)N[C@H](C(=O)N[C@@H](CCCNC(=N)N)C(=O)NC(C)(C)C(=O)N[C@@H](CCCNC(=N)N)C(=O)N[C@@H](CCCCNC(=O)COCCOCCNC(=O)COCCOCCNC(=O)CC[C@H](NC(=O)CCCCCCCCCCCCCCCCC(=O)O)C(=O)O)C(=O)O)C(C)C [Example 33, N-epsilon37-[2-(2-{2-[2-(2-{2-[(S)-4-carboxy-4-(17-carboxy-heptadecanoylamino)-butyrylamino]-ethoxy}-ethoxy)-acetylamino]-ethoxy}-ethoxy)-acetyl]-[Aib8,Glu22, Arg26,Arg34, Aib35, Lys37]GLP-1-(7-37)] (H-H[Aib]EGTFTSDVSSYLEEQAAREFIAWLVR[Aib]RK([AEEA-AEEA-γGlu-C18 diacid])-OH) | 100 to 150 nM
CC[C@H](C)[C@H](NC(=O)[C@H](Cc1ccccc1)NC(=O)[C@H](CCC(=O)O)NC(=O)[C@H](CCCNC(=N)N)NC(=O)[C@@H](NC(=O)[C@H](C)NC(=O)[C@H](CCC(N)=O)NC(=O)[C@H](CCC(=O)O)NC(=O)[C@H](CCC(=O)O)NC(=O)[C@H](CC(C)C)NC(=O)[C@H](Cc1ccc(O)cc1)NC(=O)[C@H](CO)NC(=O)[C@H](CO)NC(=O)[C@@H](NC(=O)[C@H](CC(=O)O)NC(=O)[C@H](CO)NC(=O)[C@@H](NC(=O)[C@H](Cc1ccccc1)NC(=O)[C@@H](NC(=O)CNC(=O)[C@H](CCC(=O)O)NC(=O)C(C)(C)NC(=O)[C@@H](N)Cc1c[nH]cn1)[C@@H](C)O)[C@@H](C)O)C(C)C)C(C)C)C(=O)N[C@@H](C)C(=O)N[C@@H](CCCCNC(=O)COCCOCCNC(=O)COCCOCCNC(=O)CC[C@H](NC(=O)CCCCCCCCCCCCCCCCC(=O)O)C(=O)O)C(=O)N[C@@H](CC(C)C)C(=O)N[C@H](C(=O)N[C@@H](CNC(=O)CN(CC(=O)O)CC(=O)O)C(N)=O)C(C)C [Example 37, N-epsilon31-{2-(2-{2-[2-(2-{2-[4-Carboxy-4-(17-carboxy-heptadecanoylamino)butyrylamino]ethoxy}ethoxy)acetylamino]ethoxy}ethoxy)acetyl}-N-beta34-(2-(bis-carboxymethylamino)acetyl)[Aib8,Glu22,Val25,Arg26,Lys31, Dap34] GLP-1(7-34) amide] (H-H[Aib]EGTFTSDVSSYLEEQAVREFIAK([AEEA-AEEA-γGlu-C18 diacid])LV[Dap](NTA)-NH2) | 150 to 200 nM
CC[C@H](C)[C@H](NC(=O)[C@H](Cc1ccccc1)NC(=O)[C@H](CCC(=O)O)NC(=O)[C@H](CCCNC(=N)N)NC(=O)[C@H](C)NC(=O)[C@H](C)NC(=O)[C@H](CCC(N)=O)NC(=O)[C@H](CCC(=O)O)NC(=O)[C@H](CCC(=O)O)NC(=O)[C@H](CC(C)C)NC(=O)[C@H](Cc1ccc(O)cc1)NC(=O)[C@H](CO)NC(=O)[C@H](CO)NC(=O)[C@@H](NC(=O)[C@H](CC(=O)O)NC(=O)[C@H](CO)NC(=O)[C@@H](NC(=O)[C@H](Cc1ccccc1)NC(=O)[C@@H](NC(=O)CNC(=O)[C@H](CCC(=O)O)NC(=O)C(C)(C)NC(=O)[C@@H](N)Cc1c[nH]cn1)[C@@H](C)O)[C@@H](C)O)C(C)C)C(=O)N[C@@H](C)C(=O)N[C@@H](CCCCNC(=O)COCCOCCNC(=O)COCCOCCNC(=O)C[C@H](NC(=O)C1CCN(C(=O)CCCCCCCCCCCCCCCCCCC(=O)O)CC1)C(=O)O)C(=O)N[C@@H](CC(C)C)C(=O)N[C@H](C(=O)N[C@@H](CCCNC(=N)N)C(=O)NCC(=O)N[C@@H](CCCNC(=N)N)C(=O)NCC(=O)O)C(C)C [Example 6, N-epsilon31-(2-{2-[2-(2-{2-[2-((S)-3-Carboxy-3-{[1-(19-carboxy-nonadecanoyl)piperidine-4-carbonyl]amino}propionylamino)ethoxy]ethoxy}acetylamino)ethoxy]ethoxy}acetyl)[Aib8,Glu22,Arg26,Lys31,Arg34]GLP-1-(7-37)] (H-H[Aib]EGTFTSDVSSYLEEQAAREFIAK([AEEA-AEEA-βAsp-Inp-C20 diacid])LVRGRG-OH) | 200 to 400 nM
CC[C@H](C)[C@H](NC(=O)[C@H](Cc1cccc(C(F)(F)F)c1)NC(=O)[C@H](CCC(=O)O)NC(=O)[C@H](CCCNC(=N)N)NC(=O)[C@H](C)NC(=O)[C@H](C)NC(=O)[C@H](CCC(N)=O)NC(=O)[C@H](CCC(=O)O)NC(=O)[C@H](CCC(=O)O)NC(=O)[C@H](CC(C)C)NC(=O)[C@H](Cc1ccc(O)cc1)NC(=O)[C@H](CO)NC(=O)[C@H](CO)NC(=O)[C@@H](NC(=O)[C@H](CC(=O)O)NC(=O)[C@H](CO)NC(=O)[C@@H](NC(=O)[C@H](Cc1ccccc1)NC(=O)[C@@H](NC(=O)CNC(=O)[C@H](CCC(=O)O)NC(=O)[C@H](C)NC(=O)CCc1c[nH]cn1)[C@@H](C)O)[C@@H](C)O)C(C)C)C(=O)N[C@@H](C)C(=O)N[C@@H](Cc1c[nH]c2ccccc12)C(=O)N[C@@H](CC(C)C)C(=O)N[C@H](C(=O)N[C@@H](CCCNC(=N)N)C(=O)NCC(=O)N[C@@H](CCCNC(=N)N)C(=O)N[C@@H](CCCCNC(=O)COCCOCCNC(=O)COCCOCCNC(=O)C[C@@H](NC(=O)C1CCN(C(=O)CCCCCCCCCCCCCCCCC(=O)O)CC1)C(=O)O)C(N)=O)C(C)C [Example 3, N-epsilon37-[2-(2-[2-(2-[2-(2-((R)-3-[1-(17-Carboxyheptadecanoyl)piperidin-4-ylcarbonylamino]3-carboxypropionylamino)ethoxy)ethoxy]acetylamino)ethoxy]ethoxy)acetyl][DesaminoHis 7,Glu22,Arg26,Arg34,Phe(m-CF3)28]GLP-1-(7-37)amide] | 1500 to 2000 nM
CC[C@H](C)[C@H](NC(=O)[C@H](Cc1ccccc1)NC(=O)[C@H](CCC(=O)O)NC(=O)[C@H](CCCNC(=N)N)NC(=O)[C@H](C)NC(=O)[C@H](C)NC(=O)[C@H](CCC(N)=O)NC(=O)[C@H](CCC(=O)O)NC(=O)[C@H](CCC(=O)O)NC(=O)[C@H](CC(C)C)NC(=O)[C@H](Cc1ccc(O)cc1)NC(=O)[C@H](CO)NC(=O)[C@H](CO)NC(=O)[C@@H](NC(=O)[C@H](CC(=O)O)NC(=O)[C@H](CO)NC(=O)[C@@H](NC(=O)[C@H](Cc1ccccc1)NC(=O)[C@@H](NC(=O)CNC(=O)[C@H](CCC(=O)O)NC(=O)[C@H](C)NC(=O)CCc1c[nH]cn1)[C@@H](C)O)[C@@H](C)O)C(C)C)C(=O)N[C@@H](CCC(=O)O)C(=O)N[C@@H](Cc1c[nH]c2ccccc12)C(=O)N[C@@H](CC(C)C)C(=O)N[C@H](C(=O)N[C@@H](CCCNC(=N)N)C(=O)NCC(=O)N[C@@H](CCCCNC(=O)COCCOCCNC(=O)COCCOCCNC(=O)CC[C@H](NC(=O)CCCCCCCCCCCCCCC(=O)O)C(=O)O)C(=O)NCC(=O)N[C@@H](CCC(=O)O)C(=O)N[C@@H](CCCCN)C(=O)O)C(C)C [Example 30, N-epsilon36-[2-(2-{2-[2-(2-{2-[(S)-4-carboxy-4-(15-carboxy-pentadecanoylamino)-butyrylamino]-ethoxy}-ethoxy)-acetylamino]-ethoxy}-ethoxy)-acetyl] [desaminoHis7, Glu22, Arg26, Glu30, Arg34, Lys36]GLP-1-(7-37)-Glu-Lys peptide] (Desaminohistidyl-AEGTFTSDVSSYLEEQAAREFIEWLVRGK([AEEA-AEEA-γGlu-C16 diacid])GEK-OH) | > 2000 nM
CC[C@H](C)[C@H](NC(=O)[C@H](Cc1ccccc1)NC(=O)[C@H](CCC(=O)O)NC(=O)[C@H](CCCNC(=N)N)NC(=O)[C@H](C)NC(=O)[C@H](C)NC(=O)[C@H](CCC(N)=O)NC(=O)[C@H](CCC(=O)O)NC(=O)[C@H](CCC(=O)O)NC(=O)[C@H](CC(C)C)NC(=O)[C@H](Cc1ccc(O)cc1)NC(=O)[C@H](CO)NC(=O)[C@H](CO)NC(=O)[C@@H](NC(=O)[C@H](CC(=O)O)NC(=O)[C@H](CO)NC(=O)[C@@H](NC(=O)[C@H](Cc1ccccc1)NC(=O)[C@@H](NC(=O)CNC(=O)[C@H](CCC(=O)O)NC(=O)C(C)(C)NC(=O)[C@@H](N)Cc1c[nH]cn1)[C@@H](C)O)[C@@H](C)O)C(C)C)C(=O)N[C@@H](C)C(=O)N[C@@H](Cc1c[nH]c2ccccc12)C(=O)N[C@@H](CC(C)C)C(=O)N[C@H](C(=O)N[C@@H](CCCNC(=N)N)C(=O)NCC(=O)N[C@@H](CCCNC(=N)N)C(=O)NCCCC[C@H](NC(=O)COCCOCCNC(=O)COCCOCCNC(=O)CC[C@H](NC(=O)CCCCCCCCCCCCCCCCC(=O)O)C(=O)O)C(=O)O)C(C)C [Example 28, N-alpha37-[2-(2-{2-[2-(2-{2-[(S)-4-Carboxy-4-(17-carboxy-heptadecanoylamino)-butyrylamino]-ethoxy}-ethoxy)-acetylamino]-ethoxy}-ethoxy)-acetyl] [Aib8,Glu22,Arg26,Arg34,epsilon-Lys37]GLP-1-(7-37)peptide] (H-H[Aib]EGTFTSDVSSYLEEQAAREFIAWLVRGR-X2) | 200 to 400 nM
